Laboratory results as given in PubChem BioAssay (NCI).
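All cell lines were grown in 96-well plates and treated with compound for 48 hours. TGI is the concentration that stops growth completely.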

How the values were obtained:
Assay in all cases: NCI anticancer screen, dose series, 48 h
T-47D breast = test system: T-47D breast
NCI-H226 lung = test system: NCI-H226 lung
NCI-H522 lung = test system: NCI-H522 lung
U251 CNS = test system: U251 CNS
SN12C renal = test system: SN12C renal
HOP-62 NSCLC = test system: HOP-62 NSCLC
HCT-116 colon = test system: HCT-116 colon
KM12 colon = test system: KM12 colon
A549 NSCLC = test system: A549 NSCLC
NCI-H460 lung = test system: NCI-H460 lung
NCI/ADR-RES ovarian = test system: NCI/ADR-RES ovarian
SK-MEL-5 melanoma = test system: SK-MEL-5 melanoma
PC-3 prostate = test system: PC-3 prostate
MCF7 breast = test system: MCF7 breast
HCC-2998 colon = test system: HCC-2998 colon
K-562 leukemia = test system: K-562 leukemia
TK-10 renal = test system: TK-10 renal
COLO 205 colon = test system: COLO 205 colon
SF-268 CNS = test system: SF-268 CNS
CCRF-CEM leukemia = test system: CCRF-CEM leukemia
SK-MEL-2 melanoma = test system: SK-MEL-2 melanoma
SF-295 CNS = test system: SF-295 CNS
SK-MEL-28 melanoma = test system: SK-MEL-28 melanoma
CAKI-1 renal = test system: CAKI-1 renal
RXF 393 renal = test system: RXF 393 renal
IGROV1 ovarian = test system: IGROV1 ovarian
M14 melanoma = test system: M14 melanoma
ACHN renal = test system: ACHN renal
SF-539 CNS = test system: SF-539 CNS
786-0 renal = test system: 786-0 renal
HCT-15 colon = test system: HCT-15 colon
MDA-N = test system: MDA-N
OVCAR-3 ovarian = test system: OVCAR-3 ovarian
SW-620 colon = test system: SW-620 colon
A498 renal = test system: A498 renal
RPMI-8226 leukemia = test system: RPMI-8226 leukemia
OVCAR-5 ovarian = test system: OVCAR-5 ovarian
BT-549 breast = test system: BT-549 breast
SR leukemia = test system: SR leukemia
NCI-H23 lung = test system: NCI-H23 lung
MALME-3M melanoma = test system: MALME-3M melanoma
MOLT-4 leukemia = test system: MOLT-4 leukemia
UACC-257 melanoma = test system: UACC-257 melanoma
HOP-92 NSCLC = test system: HOP-92 NSCLC
OVCAR-8 ovarian = test system: OVCAR-8 ovarian
DU-145 prostate = test system: DU-145 prostate
HT29 colon = test system: HT29 colon
SNB-75 CNS = test system: SNB-75 CNS
UO-31 renal = test system: UO-31 renal
UACC-62 melanoma = test system: UACC-62 melanoma
OVCAR-4 ovarian = test system: OVCAR-4 ovarian
MDA-MB-435 = test system: MDA-MB-435
MDA-MB-231 breast = test system: MDA-MB-231 breast
SK-OV-3 ovarian = test system: SK-OV-3 ovarian
HS 578T breast = test system: HS 578T breast
SNB-19 CNS = test system: SNB-19 CNS
LOX IMVI melanoma = test system: LOX IMVI melanoma
EKVX NSCLC = test system: EKVX NSCLC
HL-60(TB) leukemia = test system: HL-60(TB) leukemia

## O=C1CC(=O)NC(=NN2C(=O)CSC2c2ccc(Cl)c(Cl)c2)N1 (stereo not drawn)
T-47D breast
  TGI: > 100 µM
NCI-H226 lung
  TGI: > 100 µM
NCI-H522 lung
  TGI: > 100 µM
U251 CNS
  TGI: > 100 µM
SN12C renal
  TGI: > 100 µM
HOP-62 NSCLC
  TGI: > 100 µM
HCT-116 colon
  TGI: > 100 µM
KM12 colon
  TGI: > 100 µM
A549 NSCLC
  TGI: > 100 µM
NCI-H460 lung
  TGI: > 100 µM
NCI/ADR-RES ovarian
  TGI: > 100 µM
SK-MEL-5 melanoma
  TGI: > 100 µM
PC-3 prostate
  TGI: > 100 µM
MCF7 breast
  TGI: > 100 µM
HCC-2998 colon
  TGI: > 100 µM
K-562 leukemia
  TGI: > 100 µM
TK-10 renal
  TGI: > 100 µM
COLO 205 colon
  TGI: > 100 µM
SF-268 CNS
  TGI: > 100 µM
CCRF-CEM leukemia
  TGI: 49.3 µM
SK-MEL-2 melanoma
  TGI: > 100 µM
SF-295 CNS
  TGI: > 100 µM
SK-MEL-28 melanoma
  TGI: > 100 µM
CAKI-1 renal
  TGI: > 100 µM
RXF 393 renal
  TGI: > 100 µM
IGROV1 ovarian
  TGI: > 100 µM
M14 melanoma
  TGI: > 100 µM
ACHN renal
  TGI: > 100 µM
SF-539 CNS
  TGI: > 100 µM
786-0 renal
  TGI: > 100 µM
HCT-15 colon
  TGI: > 100 µM
MDA-N
  TGI: > 100 µM
OVCAR-3 ovarian
  TGI: > 100 µM
SW-620 colon
  TGI: > 100 µM
A498 renal
  TGI: > 100 µM
RPMI-8226 leukemia
  TGI: > 100 µM
OVCAR-5 ovarian
  TGI: > 100 µM
BT-549 breast
  TGI: > 100 µM
SR leukemia
  TGI: > 100 µM
NCI-H23 lung
  TGI: > 100 µM
MALME-3M melanoma
  TGI: > 100 µM
MOLT-4 leukemia
  TGI: 54.3 µM
UACC-257 melanoma
  TGI: > 100 µM
HOP-92 NSCLC
  TGI: > 100 µM
OVCAR-8 ovarian
  TGI: > 100 µM
DU-145 prostate
  TGI: > 100 µM
HT29 colon
  TGI: > 100 µM
SNB-75 CNS
  TGI: > 100 µM
UO-31 renal
  TGI: > 100 µM
UACC-62 melanoma
  TGI: > 100 µM
OVCAR-4 ovarian
  TGI: > 100 µM
MDA-MB-435
  TGI: > 100 µM
MDA-MB-231 breast
  TGI: > 100 µM
SK-OV-3 ovarian
  TGI: > 100 µM
HS 578T breast
  TGI: > 100 µM

## Cc1ccc(NCC2CC/C(=C\c3ccc(Cl)cc3)C2=O)cc1 (stereo not drawn)
T-47D breast
  TGI: 46.5 µM
NCI-H226 lung
  TGI: > 100 µM
NCI-H522 lung
  TGI: 15.8 µM
U251 CNS
  TGI: 34 µM
SN12C renal
  TGI: 33.3 µM
HOP-62 NSCLC
  TGI: > 82.6 µM
HCT-116 colon
  TGI: 26 µM
KM12 colon
  TGI: 19 µM
A549 NSCLC
  TGI: > 100 µM
NCI-H460 lung
  TGI: > 62.4 µM
NCI/ADR-RES ovarian
  TGI: > 80.1 µM
SK-MEL-5 melanoma
  TGI: 20.4 µM
PC-3 prostate
  TGI: 37.5 µM
MCF7 breast
  TGI: 26.7 µM
HCC-2998 colon
  TGI: > 69.8 µM
K-562 leukemia
  TGI: > 19.8 µM
TK-10 renal
  TGI: 40.6 µM
COLO 205 colon
  TGI: 34.2 µM
SF-268 CNS
  TGI: 56.4 µM
CCRF-CEM leukemia
  TGI: 19.3 µM
SF-295 CNS
  TGI: > 100 µM
SK-MEL-28 melanoma
  TGI: 36.7 µM
CAKI-1 renal
  TGI: 21.7 µM
RXF 393 renal
  TGI: 31 µM
IGROV1 ovarian
  TGI: 38 µM
M14 melanoma
  TGI: 28.9 µM
ACHN renal
  TGI: > 71.5 µM
SF-539 CNS
  TGI: > 60.7 µM
786-0 renal
  TGI: 11.3 µM
SNB-19 CNS
  TGI: > 55.7 µM
HCT-15 colon
  TGI: 9.41 µM
MDA-N
  TGI: 26.4 µM
OVCAR-3 ovarian
  TGI: 29.1 µM
LOX IMVI melanoma
  TGI: 19 µM
SW-620 colon
  TGI: 16.5 µM
A498 renal
  TGI: > 73.3 µM
RPMI-8226 leukemia
  TGI: 6.96 µM
OVCAR-5 ovarian
  TGI: > 54.5 µM
BT-549 breast
  TGI: 36.5 µM
SR leukemia
  TGI: > 24 µM
EKVX NSCLC
  TGI: > 100 µM
NCI-H23 lung
  TGI: 45.7 µM
MALME-3M melanoma
  TGI: 38 µM
MOLT-4 leukemia
  TGI: > 32.4 µM
UACC-257 melanoma
  TGI: 39.2 µM
HOP-92 NSCLC
  TGI: 30.6 µM
OVCAR-8 ovarian
  TGI: 36.1 µM
DU-145 prostate
  TGI: > 80.6 µM
HT29 colon
  TGI: 49.1 µM
SNB-75 CNS
  TGI: > 100 µM
UO-31 renal
  TGI: 60 µM
UACC-62 melanoma
  TGI: 58.6 µM
OVCAR-4 ovarian
  TGI: > 80.7 µM
MDA-MB-435
  TGI: 35.9 µM
MDA-MB-231 breast
  TGI: 28.4 µM
SK-OV-3 ovarian
  TGI: > 100 µM
HL-60(TB) leukemia
  TGI: 13.7 µM
HS 578T breast
  TGI: > 100 µM
